In assay [1] the target is Insulin receptor (Homo sapiens) (UniProt P06213). The experiment in a line: Displacement of [125I]insulin from insulin receptor chimera fused with Fc-region of IgG at 100 uM by scintillation proximity assay.
Assay [2] has the same target. As to the kind of experiment: Displacement of [125I]insulin from insulin receptor chimera fused with Fc-region of IgG at 300 uM by scintillation proximity assay.

Sequence of Insulin receptor (Homo sapiens) (P06213 28-758 limits assumed): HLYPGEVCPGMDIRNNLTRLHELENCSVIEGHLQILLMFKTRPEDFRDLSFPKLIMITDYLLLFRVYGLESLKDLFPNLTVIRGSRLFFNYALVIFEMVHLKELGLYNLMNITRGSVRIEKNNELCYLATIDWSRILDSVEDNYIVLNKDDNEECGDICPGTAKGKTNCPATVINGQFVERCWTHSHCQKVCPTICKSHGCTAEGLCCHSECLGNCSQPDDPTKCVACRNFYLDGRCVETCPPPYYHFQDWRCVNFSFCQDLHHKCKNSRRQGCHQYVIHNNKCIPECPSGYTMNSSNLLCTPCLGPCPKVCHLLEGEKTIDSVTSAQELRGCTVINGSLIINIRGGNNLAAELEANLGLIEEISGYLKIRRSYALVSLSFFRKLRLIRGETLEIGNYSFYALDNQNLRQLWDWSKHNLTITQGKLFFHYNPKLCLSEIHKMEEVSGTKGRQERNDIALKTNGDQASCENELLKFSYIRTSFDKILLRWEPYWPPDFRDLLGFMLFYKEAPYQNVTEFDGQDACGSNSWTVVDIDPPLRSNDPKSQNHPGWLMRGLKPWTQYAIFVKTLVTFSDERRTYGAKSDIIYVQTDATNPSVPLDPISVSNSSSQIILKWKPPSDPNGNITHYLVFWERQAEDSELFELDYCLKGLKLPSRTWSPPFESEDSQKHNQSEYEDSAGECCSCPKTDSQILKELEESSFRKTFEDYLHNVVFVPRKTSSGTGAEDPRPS
Sequence of Insulin receptor (Homo sapiens) (P06213 763-1382 limits assumed): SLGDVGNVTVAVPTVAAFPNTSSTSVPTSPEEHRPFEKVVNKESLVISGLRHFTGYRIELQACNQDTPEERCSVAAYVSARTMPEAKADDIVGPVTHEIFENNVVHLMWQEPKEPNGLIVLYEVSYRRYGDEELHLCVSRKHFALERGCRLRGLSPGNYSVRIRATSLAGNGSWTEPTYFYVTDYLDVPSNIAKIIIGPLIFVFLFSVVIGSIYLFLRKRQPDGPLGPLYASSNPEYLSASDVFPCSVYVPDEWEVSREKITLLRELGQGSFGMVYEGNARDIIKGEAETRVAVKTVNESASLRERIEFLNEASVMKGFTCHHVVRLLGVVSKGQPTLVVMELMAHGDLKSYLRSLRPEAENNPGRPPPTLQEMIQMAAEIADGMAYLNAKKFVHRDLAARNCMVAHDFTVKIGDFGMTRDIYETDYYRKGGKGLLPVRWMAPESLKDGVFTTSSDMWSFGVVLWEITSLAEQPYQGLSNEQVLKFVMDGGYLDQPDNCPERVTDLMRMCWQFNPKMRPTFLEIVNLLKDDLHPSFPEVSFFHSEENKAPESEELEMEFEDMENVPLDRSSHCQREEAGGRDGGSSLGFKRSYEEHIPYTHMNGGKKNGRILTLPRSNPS

In the case of `O=C(CSc1nnc(Nc2ccccc2F)s1)c1ccc(OC(F)F)cc1`, the figures for the Activity in assay [1] and in assay [2] were 69% and 49%, respectively.

These data come from ChEMBL document CHEMBL1157598, “Direct determination of the insulin-insulin receptor interface using transferred cross-saturation experiments” (J Med Chem, 2010).
